Measured values reported in patent US20090170938A1 (priority 2005, published 2009).

System: Phytophthora infestans
Type: in vivo, Phytophthora infestans on tomato
Conditions: active compound application rate 5 ppm; protective spray, tomato; evaluation 3 days after inoculation

SMILES: CON=C(C(=O)OC)c1ccccc1CO/N=C(\C)c1cccc(C(F)(F)F)c1 [Trifloxystrobin, 2-[α-{[(α-methyl-3-trifluoromethyl-benzyl)imino]-oxy}-o-tolyl]-glyoxylic acid methyl ester O-methyloxime]
- % efficacy: 23%
